Data: paper PMC4197335, “Cancer-Selective Targeting of the NF-κB Survival Pathway with GADD45β/MKK7 Inhibitors” (Cancer Cell, 2014)
Where a SMILES comes first, the peptide text is derived from it. [ ]: non-standard residue; d: D form. The star is where a group is joined. Cbz = O=C(OCc1ccccc1)*

How the values were obtained:
[1] = test system: U266 MM cells; conditions: read-out: IC50 (U266 cells); Table S3; day 6; [3H]thymidine incorporation or trypan blue exclusion
[2] = molecular target: T1, GADD45β/MKK7 complex (Homo sapiens, UniProt O14733); experiment: ELISA GADD45β/MKK7 competition assay; type: binding; conditions: for inhibition at 0.01 µM / IC50: Table S3; for inhibition at 0.01 µM: peptide at 10 nM, read-out: % inhibition (ELISA); for IC50: read-out: IC50 (ELISA); for % inhibition (ELISA): Table S2, peptide at 42 nM
T1 construct: Full-length human (h)MKK7 was expressed as a protein fused to an N-terminal GST tag (GST-MKK7); made in house
T1 sequence (O14733 1-419): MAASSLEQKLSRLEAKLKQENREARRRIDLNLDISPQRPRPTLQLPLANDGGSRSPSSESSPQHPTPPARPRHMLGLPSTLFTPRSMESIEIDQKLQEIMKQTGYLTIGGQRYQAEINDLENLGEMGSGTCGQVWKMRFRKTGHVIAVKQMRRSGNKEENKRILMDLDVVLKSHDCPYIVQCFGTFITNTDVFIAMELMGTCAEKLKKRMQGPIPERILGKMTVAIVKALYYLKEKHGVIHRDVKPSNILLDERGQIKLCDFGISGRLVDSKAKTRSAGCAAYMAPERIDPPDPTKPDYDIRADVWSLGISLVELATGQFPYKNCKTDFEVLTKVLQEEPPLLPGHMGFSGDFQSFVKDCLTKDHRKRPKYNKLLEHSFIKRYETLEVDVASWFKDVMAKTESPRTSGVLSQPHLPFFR
Source text: Additional details are provided in Supplemental Experimental Procedures.
(1:1,000) and the HRP chromogenic substrate, o -phenylenediamine (OPD). GST -coated wells wer e […]
The ELISA competition screen used f or the isolation of antagonists of the GADD45β /MKK7 […]
The library deconvolution strategy used for this screen was described previously […]
General information about this type of screens can be found elsewhere […]
Values were expressed as the percentage of inhibition of His6-hGADD45β binding to GST-hMKK7 relative to the binding measured in the absence of […]
Dose-response, ELISA GADD45β /MKK7 competition assays were carried out under similar […]
As part of the SAR analysis and lead optimization process, where appropriate, competitors were tested at a concentration up to 100 nM. In order to determine their stability in biolog ical f luids , peptides were incubated at the concentration of 10 µM in […]
calculated using at least 7 concentrations of peptide and def ined as the mean concentration of peptide […]
the absence of competitor. W here indicated, values were expressed as the percentage of inhibition of His 6 -hGADD45β binding to GST-hMKK7 relative to the binding measured in the absence of competitor.
GST was used as a control in all the experiments. […]
tetrapeptide used as negative control in some of the ELISA and cellular assays was as f ollows: z -DNC, z-T yr -Asp-His-Gln-NH 2 . […]

[3] = pharmacokinetics after single intravenous injection
Description: The pharmacokinetic analyses of DTP3 and z-DTP2 were outsourced. Additional details are provided in Supplemental Experimental Procedures. […]
Pharmacokinetic Anal yses
In vitro and in vivo pharmacok inetic analyses were outsourced to Cypr ot ex (http://www.c yprotex.com/home/) (Figure 7A, Tables S6). In vitro pharmacok inetic assays were perf ormed according to established, in- house protocols and included: plasma stability (human), thermodynamic solubility (PBS pH 7.4, at 37 °C f or 14 days), microsomal stability (human), plasma protein binding (PPB; mouse and human), and distribution coeff icient (LogD). In vivo pharmacok inetic […]
analyses were also perf ormed at Cyprotex according to established, in- house protocols. Brief ly, the peptides were dissolved in PBS and administered by single intravenous injection t o CD1 male mice at the dose of 10 mg/kg (25 -30 g of total body weight; n=3 mice per time point per compound) . Blood samples were collected in heparinized tubes at up to 7 tim e points after this injection (i.e. 0.08, 0.25, 0.5, 1, 2, 4 and 8 hr), and the plasma concentrations of the test peptide were determined at each time point by LC-MS/ MS, using a f ive- point standard curve covering a peptide concentration range from 3 to 3,000 ng/mL. Standard curves were prepared using blank plasma matrices and treated in the same manner as the test samples. The main pharmacok inetic parameters determined in these analyses were: terminal half-lif e (t 1/2 ), plasma clearance (CL), volume of distribution (V d ), and area under the plasma concentration versus time curve (AUC) (Figure 7A, Table S6). Values were calculated from the data of the peptide plasma concentration versus time curves using a non-compartmental model analysis, as described elsewhere (Groulx, 2006; Landaw and Di Stef ano 3rd, 1982) . […]

| Compound | inhibition at 0.01 µM [2] [%] | % inhibition (ELISA) [2] [%] | also measured |
| --- | --- | --- | --- |
| CCCCCCCCCCCCCC(=O)N[C@H](Cc1ccc(O)cc1)C(=O)N[C@H](CCC(=O)O)C(=O)N[C@H](CCCNC(=N)N)C(=O)N[C@H](Cc1ccccc1)C(N)=O [Myr-YERF-NH2] | 37 |  | IC50 [1]: > 10000 nM; IC50 [2]: > 10 nM |
| N=C(N)NCCC[C@@H](NC(=O)[C@@H](CCC(=O)O)NC(=O)[C@@H](Cc1ccc(O)cc1)NC(=O)OCc1ccccc1)C(=O)N[C@H](Cc1ccccc1)C(N)=O [z-DTP2, z-YERF-NH2] (Cbz-[dY][dE][dR][dF]-NH2) | 95 |  | predicted dose required to achieve the therapeutic plasma concentration of 1 μM at the steady state ([3]; k0 = k1 x Vd x Cp): 3.61 mg/kg/h; AUC ([3]; mouse, in vivo, iv, 10 mg/kg): 2060 ± 250 ng·h/mL; Vd ([3]; mouse, in vivo, iv, 10 mg/kg): 14.6 ± 2.23 L/kg; clearance ([3]; mouse, in vivo, iv, 10 mg/kg): 78.1 ± 11.7 mL/min/kg; half-life ([3]; mouse, in vivo, iv, 10 mg/kg): 2.09 ± 0.07 h |
| COC(=O)C[C@@H](NC(=O)[C@@H](Cc1ccc(O)cc1)NC(=O)OCc1ccccc1)C(=O)N[C@H](Cc1c[nH]cn1)C(=O)N[C@H](Cc1ccccc1)C(N)=O [z-YD(O-methyl)HF-NH2] (Cbz-[dY][dD](OMe)[dH][dF]-NH2) | 84 |  | IC50 [2]: > 10 nM |
| Ac-WDHW-NH2 |  | 50 |  |
| Ac-WEHF-NH2 |  | 35 |  |
| Ac-YDHW-NH2 |  | 57 |  |
| Ac-YDKF-NH2 |  | 34 |  |
| Ac-YDRW-NH2 |  | 43 |  |
| Ac-YEHF-NH2 |  | 52 |  |
| Ac-YERW-NH2 |  | 27 |  |

Now from value to compound, other results behind:

| inhibition at 0.01 µM [2] [%] | % inhibition (ELISA) [2] [%] | Compound | also measured |
| --- | --- | --- | --- |
| 12 |  | NC(=O)CC[C@@H](NC(=O)[C@@H](Cc1c[nH]cn1)NC(=O)[C@@H](CC(=O)O)NC(=O)[C@@H](Cc1ccc(O)cc1)NC(=O)OCc1ccccc1)C(N)=O [z-DNC, z-YDHQ-NH2] (Cbz-[dY][dD][dH][dQ]-NH2) |  |
| 84 |  | NC(=O)[C@@H](Cc1ccccc1)NC(=O)[C@@H](Cc1c[nH]cn1)NC(=O)[C@@H](CC(=O)O)NC(=O)[C@@H](Cc1ccc(O)cc1)NC(=O)OCc1ccccc1 [z-DTP1, z-YDHF-NH2] (Cbz-[dY][dD][dH][dF]-NH2) |  |
| 3 |  | COC(=O)C[C@@H](NC(=O)[C@@H](Cc1ccc(O)cc1)NC(=O)OCc1ccccc1)C(=O)N[C@H](Cc1c[nH]cn1)C(=O)N[C@H](CCC(N)=O)C(N)=O [z-YD(O-methyl)HQ-NH2] (Cbz-[dY][dD](OMe)[dH][dQ]-NH2) | IC50 [2]: > 10 nM |
|  | 45 | Ac-WDRF-NH2 |  |
|  | 45 | Ac-YDRF-NH2 |  |
